Assay results published in patent US20240041042A1, “1-(PYRIDYL)-5-AZINYLPYRAZOLE DERIVATIVES, AND THEIR USE FOR CONTROL OF UNDESIRED PLANT GROWTH” (Bayer Aktiengesellschaft, priority 2020, published 2024).
Read-outs that look alike come from different tables or passages of the source.

Columns and labels:
Format in all cases: in vivo
[1] = system: Alopecurus myosuroides (ALOMY); assay: Pre-emergence herbicidal action against ALOMY; conditions: scored visually after about 3 weeks, 100% = plants have died
Summary of the method: (§1)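 Pre-emergence soil-surface spray, WP/EC formulation, 0.5% additive, 600 l/ha water, rates of 320 g/ha or lower. Greenhouse, ~3 wk. Visual score, % of untreated control (100% = plants dead, 0% = like control).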

[2] = system: Amaranthus retroflexus (AMARE); assay: Pre-emergence herbicidal action against AMARE; conditions: visual scoring after about 3 weeks vs untreated controls
Summary of the method: as §1

[3] = system: Avena fatua (AVEFA); assay: Pre-emergence herbicidal action against AVEFA; conditions: 320 g/ha, visual scoring after about 3 weeks vs untreated controls
Summary of the method: as §1

[4] = system: Digitaria sanguinalis (DIGSA); assay: Pre-emergence herbicidal action against DIGSA
Summary of the method: as §1

[5] = system: Echinochloa crus-galli (ECHCG); assay: Pre-emergence herbicidal action against ECHCG; conditions: dosage 320 g/ha
Summary of the method: as §1

[6] = system: Lolium rigidum (LOLRI); assay: Pre-emergence herbicidal action against LOLRI
Summary of the method: as §1

[7] = system: Matricaria inodora (MATIN); assay: Pre-emergence herbicidal action against MATIN; conditions: dosage 320 g/ha
Summary of the method: as §1

[8] = system: Pharbitis purpurea (PHBPU); assay: Pre-emergence herbicidal action against PHBPU; conditions: dosage 320 g/ha
Summary of the method: as §1

[9] = system: Polygonum convolvulus (POLCO); assay: Pre-emergence herbicidal action against POLCO
Summary of the method: as §1

[10] = system: Setaria viridis (SETVI); assay: Pre-emergence herbicidal action against SETVI
Summary of the method: as §1

[11] = system: Verconica persica (VERPE); assay: Pre-emergence herbicidal action against VERPE; conditions: dosage 320 g/ha
Summary of the method: as §1

[12] = system: Viola tricolor (VIOTR); assay: Pre-emergence herbicidal action against VIOTR
Summary of the method: as §1

[13] = system: Abutilon theophrasti (ABUTH); assay: Post-emergence herbicidal action against ABUTH; conditions: visual rating about 3 weeks after treatment vs untreated controls (100% = plants have died, 0% = like control plants)
Summary of the method: (§2)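 Values are percent visual activity (0% like control, 100% plants dead) after about 3 weeks in the greenhouse. Treatment: post-emergence spray at one-leaf stage, 600 l/ha spray volume, 0.5% additive, doses 320 g/ha or lower.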

[14] = system: Alopecurus myosuroides (ALOMY); assay: Post-emergence herbicidal action against ALOMY; conditions: visual rating about 3 weeks after treatment vs untreated controls (100% = plants have died, 0% = like control plants)
Summary of the method: as §2

[15] = system: Amaranthus retroflexus (AMARE); assay: Post-emergence herbicidal action against AMARE
Summary of the method: as §2

[16] = system: Digitaria sanguinalis (DIGSA); assay: Post-emergence herbicidal action against DIGSA; conditions: visual rating about 3 weeks after treatment
Summary of the method: as §2

[17] = system: Echinochloa crus-galli (ECHCG); assay: Post-emergence herbicidal action against ECHCG
Summary of the method: as §2

[18] = system: Matricaria inodora (MATIN); assay: Post-emergence herbicidal action against MATIN
Summary of the method: as §2

[19] = system: Pharbitis purpurea (PHBPU); assay: Post-emergence herbicidal action against PHBPU
Summary of the method: as §2

[20] = system: Setaria viridis (SETVI); assay: Post-emergence herbicidal action against SETVI
Summary of the method: as §2

[21] = system: Verconica persica (VERPE); assay: Post-emergence herbicidal action against VERPE
Summary of the method: as §2

[22] = system: Oryza sativa (ORYSA); conditions: crop plant compatibility
Summary of the method: (§3)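 Foliar application at the one-leaf stage: WP/EC formulation, 0.5% additive, 600 l/ha water. Greenhouse-grown in sandy loam. Endpoint is visual % injury relative to untreated controls at about 3 weeks.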

[23] = system: Zea mays (ZEAMX); conditions: pre-emergence, 80 g/ha, crop plant compatibility, in comparison to untreated controls
Text: Seeds of monocotyledonous and dicotyledonous weed plants and crop plants are placed in plastic or organic planting pots and covered with soil. The compounds of the invention, formulated in the form of wettable powders (WP) or as emulsion concentrates (EC), are then applied to the surface of the covering soil as aqueous suspension or emulsion with addition of 0.5% additive at a water application rate equivalent to 600 l/ha. After the treatment, the pots are placed in a greenhouse and kept under good growth conditions for the trial plants. After about 3 weeks, the effect of the preparations is scored visually in comparison with untreated controls as percentages. For example, 100% activity=the plants have died, 0% activity=like control plants.
The observed effects on selected crop plants are reported here in comparison to the untreated controls (values in %). The appendices “a” “b” and “c” give differentiation by dosage used with otherwise the same crop plants tested.

[24] = system: Polygonum convolvulus (POLCO); assay: Post-emergence herbicidal action against POLCO
Summary of the method: as §2

[25] = system: Viola tricolor (VIOTR); assay: Post-emergence herbicidal action against VIOTR
Summary of the method: as §2

[26] = system: Zea mays (ZEAMX); conditions: crop plant compatibility, 80 g/ha, effect vs untreated controls
Summary of the method: as §3

[27] = system: Avena fatua (AVEFA); assay: Post-emergence herbicidal action against AVEFA; conditions: visual rating about 3 weeks after treatment
Summary of the method: as §2

[28] = system: Lolium rigidum (LOLRI); assay: Post-emergence herbicidal action against LOLRI
Summary of the method: as §2

[29] = 80 g/ha, visual scoring after about 3 weeks vs untreated controls
[30] = 80 g/ha, effect in comparison to untreated controls
[31] = 320 g/ha, visual rating about 3 weeks after treatment

| Compound | Pre-emergence action against ALOMY ([1]; 320 g/ha) [%] | Pre-emergence action against AMARE in % ([2]; 320 g/ha) [%] | Pre-emergence action against AVEFA in % [3] [%] | Pre-emergence action against DIGSA in % [4, 29] [%] | Pre-emergence action against DIGSA in % ([4]; dosage 320 g/ha) [%] | Pre-emergence action against ECHCG in % [5] [%] | Pre-emergence action against LOLRI in % ([6]; dosage 80 g/ha) [%] | Pre-emergence action against LOLRI in % ([6]; dosage 320 g/ha) [%] | Pre-emergence action against MATIN in % [7] [%] | Pre-emergence action against PHBPU in % [8] [%] | Pre-emergence action against SETVI in % ([10]; dosage 80 g/ha) [%] | Pre-emergence action against SETVI in % ([10]; dosage 320 g/ha) [%] | Pre-emergence action against VERPE in % [11] [%] | Pre-emergence action against VIOTR in % ([12]; 320 g/ha, Viola tricolor) [%] | Post-emergence action against ALOMY in % ([14]; 80 g/ha) [%] | Post-emergence action against DIGSA in % ([16]; 80 g/ha) [%] | Post-emergence action against ECHCG in % ([17]; dosage 80 g/ha) [%] | Post-emergence action against PHBPU in % ([19]; dosage 80 g/ha) [%] | Post-emergence action against SETVI in % ([20]; dosage 80 g/ha) [%] | Post-emergence action against ORYSA in % [22, 30] [%] | other results |
| --- | --- | --- | --- | --- | --- | --- | --- | --- | --- | --- | --- | --- | --- | --- | --- | --- | --- | --- | --- | --- | --- |
| O=C(O)CNC(=O)COc1nn(-c2ccccn2)c(-c2ccc(F)nc2)c1Cl [Example I-118] | 100 | 100 | 90 | 100 | 100 | 100 | 90 | 100 | 90 | 90 | 90 | 100 | 90 | 100 | 100 | 80 | 80 | 80 | 80 | 0 | Pre-emergence action against ALOMY ([1]; 80 g/ha): 90%; Pre-emergence action against AMARE in % ([2]; 80 g/ha): 90%; Pre-emergence action against POLCO in % ([9]; dosage 80 g/ha): 80%; Pre-emergence action against POLCO in % ([9]; dosage 320 g/ha): 90%; Post-emergence action against ABUTH in % ([13]; 80 g/ha): 80%; Post-emergence action against AMARE in % ([15]; 80 g/ha, visual rating about 3 weeks after treatment vs untreated controls (100% = plants have died, 0% = like control plants)): 90%; Post-emergence action against MATIN in % ([18]; dosage 80 g/ha): 80%; Post-emergence action against VERPE in % ([21]; dosage 80 g/ha): 90%; Post-emergence action against ORYSA in % ([22]; 20 g/ha, effect vs untreated controls): 0% |
| CCOC(=O)COc1nn(-c2ccccn2)c(-c2ccc(Cl)nc2)c1Cl [Example I-241] | 80 | 90 | – | – | 90 | – | – | 90 | – | – | – | – | – | – | – | – | – | 80 | – | 0 | Pre-emergence action against ZEAMX in % [23]: 0%; Post-emergence action against AMARE in % [15, 31]: 80%; Post-emergence action against MATIN in % ([18]; dosage 320 g/ha): 80%; Post-emergence action against PHBPU in % ([19]; dosage 320 g/ha): 90%; Post-emergence action against POLCO in % ([24]; dosage 80 g/ha): 80%; Post-emergence action against POLCO in % ([24]; dosage 320 g/ha): 80%; Post-emergence action against VERPE in % ([21]; 320 g/ha, VERPE): 80%; Post-emergence action against VIOTR in % ([25]; 320 g/ha): 80%; Post-emergence action against ORYSA in % ([22]; 320 g/ha, effect in comparison to untreated controls): 0%; Post-emergence action against ZEAMX in % [26]: 0% |
| CCOC(=O)COc1nn(-c2nc(F)ccc2F)c(-c2ccc(F)nc2)c1C1CC1 [Example I-348] | 80 | 90 | 90 | 90 | 100 | 90 | 90 | 100 | 90 | 90 | 80 | 100 | 90 | 90 | 80 | 80 | 90 | 80 | 80 | 0 | Pre-emergence action against VIOTR in % ([12]; dosage 80 g/ha): 80%; Post-emergence action against ABUTH in % ([13]; 320 g/ha): 80%; Post-emergence action against ALOMY in % ([14]; 320 g/ha): 90%; Post-emergence action against AMARE in % [15, 31]: 80%; Post-emergence action against AVEFA in % ([27]; 80 g/ha): 80%; Post-emergence action against AVEFA in % ([27]; 320 g/ha): 80%; Post-emergence action against DIGSA in % ([16]; 320 g/ha): 90%; Post-emergence action against ECHCG in % ([17]; dosage 320 g/ha): 90%; Post-emergence action against LOLRI in % ([28]; dosage 80 g/ha): 80%; Post-emergence action against LOLRI in % ([28]; dosage 320 g/ha): 80%; Post-emergence action against MATIN in % ([18]; dosage 320 g/ha): 80%; Post-emergence action against PHBPU in % ([19]; dosage 320 g/ha): 80%; Post-emergence action against POLCO in % ([24]; dosage 320 g/ha): 80%; Post-emergence action against SETVI in % ([20]; dosage 320 g/ha): 90%; Post-emergence action against VERPE in % ([21]; 320 g/ha, VERPE): 80%; Post-emergence action against VERPE in % ([21]; dosage 80 g/ha): 80%; Post-emergence action against VIOTR in % ([25]; 80 g/ha): 80%; Post-emergence action against VIOTR in % ([25]; 320 g/ha): 80%; Post-emergence action against ZEAMX in % [26]: 20% |
